This passage reports MIC results from patent publication US10030047B2 (Hoffmann-La Roche Inc., priority 2015, dated 2018).

Each structure is given as a SMILES string. Values after ≈ are worked out from the molar mass of the structure shown.

The first experiment has as its system A. baumannii strain ATCC19606. Description: Minimum inhibitory concentration (MIC) determination, microbroth dilution (CLSI). As to conditions: Acinetobacter baumannii, ATCC19606, 20 h, read-out: ATCC19606 MIC. The format is cell-based. As to the method:
The in vitro antimicrobial activity of the compounds was determined through microbroth minimum inhibitory concentration (MIC) methodology performed according to the Clinical and Laboratory Standard Institute guidelines (CLSI—M07-A9 Jan. 2012. Methods for Dilution Antimicrobial Susceptibility Tests for Bacteria That Grow Aerobically; Approved Standard—Ninth Edition, Clinical and Laboratory Standards Institute, Wayne/PA, US and the CLSI—M100-S24 Jan. 2014. Performance Standards for Antimicrobial Susceptibility Testing; Approved Standard—Fourth Informational Supplement, Clinical and Laboratory Standards Institute, Wayne/PA, US).
The compound stock solution was freshly prepared at 10× the required top concentration for the MIC determination, i.e. at 1280 mg/L, by reconstitution of the dry compound in 50:50 water:DMSO.
Polystyrene non-treated 96 wells microtiter plates were used for preparing panel containing compound serial twofold diluted at two times the final testing concentration (e.g. range from 64 to 0.06 μg/ml) in cation adjusted Mueller Hinton broth medium (CAMHB).
Inoculum was prepared by the “direct colony suspension method”. Colonies of A. baumannii ATCC19606 or clinical isolates were suspended in saline solution and adjusted to 0.5 McFarland, diluted 100 times in CAMHB broth and 50 μl added to each well (final concentration of cells ˜5×10^(5) CFU/ml and Final volume/well of 100 μl). Microtiter plates were sealed and incubated at 35±2° C.
MICs values were read after 20 hours of incubation and recorded as the lowest concentration of the antimicrobial that inhibits more or equal to 80% of growth of the organism as detected by the unaided eye and using a microtiter plate optical density reader (OD 600 nm).
Tables 2, 3, 4 and 5 provide the minimum inhibitory concentration (MIC) in microgram per milliliter of the compounds of present invention obtained against the A. baumannii strain ATCC19606 (Tables 2, 3, 4 and 5).
In the case of `CN1C(=O)[C@H](CCCCN)NC(=O)[C@H](CCCN)NCc2cccnc2Sc2c(Cl)ccc(Cl)c2CNC(=O)[C@@H]1Cc1c[nH]c2ccccc12` [Example 38, (11S,14S,17S)-14-(4-Amino-butyl)-11-(3-amino-propyl)-22,25-dichloro-17-(1H-indol-3-ylmethyl)-16-methyl-2-thia-4,10,13,16,19-pentaaza-tricyclo[19.4.0.0*3,8*]pentacosa-1(25),3(8),4,6,21,23-hexaene-12,15,18-trione], the MIC is 0.5 µg/mL (≈ 0.676 µM).

Staying with this experiment, now noted: Acinetobacter baumannii; A. baumannii ATCC19606; CAMHB; read after 20 hours; >=80% growth inhibition; read-out: ATCC19606 MIC.
Regarding `CN1C(=O)[C@H](CCCCN)NC(=O)[C@H](CCCN)NCc2c(F)cccc2Sc2ccccc2CNC(=O)[C@@H]1Cc1c[nH]c2ccccc12` [Example 35, (12S,15S,18S)-15-(4-Amino-butyl)-18-(3-amino-propyl)-22-fluoro-12-(1H-indol-3-ylmethyl)-13-methyl-2-thia-10,13,16,19-tetraaza-tricyclo[19.4.0.0*3,8*]pentacosa-1(21),3,5,7,22,24-hexaene-11,14,17-trione], the MIC turned out to be 8 µg/mL (≈ 11.6 µM). The same measure, in the same setting: the value for `CN1C(=O)[C@H](CCCCN)NC(=O)[C@H](CCCN)NCc2cccnc2Sc2c(cccc2C(F)(F)F)CNC(=O)[C@@H]1Cc1c[nH]c2ccccc12` [Example 36, (11S,14S,17S)-14-(4-Amino-butyl)-11-(3-amino-propyl)-17-(1H-indol-3-ylmethyl)-16-methyl-25-trifluoromethyl-2-thia-4,10,13,16,19-pentaaza-tricyclo[19.4.0.0*3,8*]pentacosa-1(25),3,5,7,21,23-hexaene-12,15,18-trione] was 1 µg/mL (≈ 1.35 µM); that for `CN1C(=O)[C@H](CCCCN)NC(=O)[C@H](CCCN)NCc2cccnc2Sc2ccc(Cl)c(Cl)c2CNC(=O)[C@@H]1Cc1c[nH]c2ccccc12` [Example 37, (11S,14S,17S)-14-(4-Amino-butyl)-11-(3-amino-propyl)-22,23-dichloro-17-(1H-indol-3-ylmethyl)-16-methyl-2-thia-4,10,13,16,19-pentaaza-tricyclo[19.4.0.0*3,8*]pentacosa-1(25),3,5,7,21,23-hexaene-12,15,18-trione] was 2 µg/mL (≈ 2.7 µM). Still for that read-out and setting: for `CN1C(=O)[C@H](CCCCN)NC(=O)[C@H](CCCN)NCc2cccnc2Sc2c(Cl)ccc(C(F)(F)F)c2CNC(=O)[C@@H]1Cc1c[nH]c2ccccc12` [Example 39, (11S,14S,17S)-14-(4-Amino-butyl)-11-(3-amino-propyl)-25-chloro-17-(1H-indol-3-ylmethyl)-16-methyl-22-trifluoromethyl-2-thia-4,10,13,16,19-pentaaza-tricyclo[19.4.0.0*3,8*]pentacosa-1(25),3,5,7,21,23-hexaene-12,15,18-trione] the value was 0.5 µg/mL (≈ 0.647 µM); for `CN1C(=O)[C@H](CCCCN)NC(=O)[C@H](CCCN)NCc2cccnc2Sc2c(F)ccc(F)c2CNC(=O)[C@@H]1Cc1c[nH]c2ccccc12` [Example 40, (11S,14S,17S)-14-(4-Amino-butyl)-1-(3-amino-propyl)-22,25-difluoro-17-(1H-indol-3-ylmethyl)-16-methyl-2-thia-4,10,13,16,19-pentaaza-tricyclo[19.4.0.0*3,8*]pentacosa-1(25),3(8),4,6,21,23-hexaene-12,15,18-trione], 0.5 µg/mL (≈ 0.707 µM). Regarding `Cc1cc(Cl)c2c(c1)CNC(=O)[C@H](Cc1c[nH]c3ccccc13)N(C)C(=O)[C@H](CCCCN)NC(=O)[C@H](CCCN)NCc1ccccc1S2` [Example 41, (12S,15S,18S)-15-(4-Amino-butyl)-18-(3-amino-propyl)-4-chloro-12-(1H-indol-3-ylmethyl)-6,13-dimethyl-2-thia-10,13,16,19-tetraaza-tricyclo[19.4.0.0*3,8*]pentacosa-1(25),3,5,7,21,23-hexaene-11,14,17-trione], the MIC turned out to be 0.5 µg/mL (≈ 0.696 µM). Consider `CN1C(=O)[C@H](CCCCN)NC(=O)[C@H](CCCN)NCc2ccccc2Sc2c(Cl)cc(Cl)cc2CNC(=O)[C@@H]1Cc1c[nH]c2ccccc12` [Example 42, (12S,15S,18S)-15-(4-Amino-butyl)-18-(3-amino-propyl)-4,6-dichloro-12-(1H-indol-3-ylmethyl)-13-methyl-2-thia-10,13,16,19-tetraaza-tricyclo[19.4.0.0*3,8*]pentacosa-1(25),3,5,7,21,23-hexaene-11,14,17-trione], for which the MIC is 1 µg/mL (≈ 1.35 µM). `CCN1C(=O)[C@H](CCCCN)NC(=O)[C@H](CCCN)NCc2ccccc2Sc2ccc(Cl)cc2CNC(=O)[C@@H]1Cc1c[nH]c2ccccc12` [Example 43, (12S,15S,18S)-15-(4-Amino-butyl)-18-(3-amino-propyl)-6-chloro-13-ethyl-12-(1H-indol-3-ylmethyl)-2-thia-10,13,16,19-tetraaza-tricyclo[19.4.0.0*3,8*]pentacosa-1(21),3,5,7,22,24-hexaene-11,14,17-trione]: the MIC was determined as 1 µg/mL (≈ 1.39 µM).

For `CCN1C(=O)[C@H](CCCCN)NC(=O)[C@H](CCCN)NCc2ccccc2Sc2ccc(OC)cc2CNC(=O)[C@@H]1Cc1c[nH]c2ccccc12` [Example 44, (12S,15S,18S)-15-(4-Amino-butyl)-18-(3-amino-propyl)-13-ethyl-12-(1H-indol-3-ylmethyl)-6-methoxy-2-thia-10,13,16,19-tetraaza-tricyclo[19.4.0.0*3,8*]pentacosa-1(21),3,5,7,22,24-hexaene-11,14,17-trione], the MIC came to 0.5 µg/mL (≈ 0.7 µM). Still for that read-out and setting: the value for `CCN1C(=O)[C@H](CCCCN)NC(=O)[C@H](CCCN)NCc2ccccc2Sc2c(Cl)cccc2CNC(=O)[C@@H]1Cc1c[nH]c2ccccc12` [Example 45, (12S,15S,18S)-15-(4-Amino-butyl)-18-(3-amino-propyl)-4-chloro-13-ethyl-12-(1H-indol-3-ylmethyl)-2-thia-10,13,16,19-tetraaza-tricyclo[19.4.0.0*3,8*]pentacosa-1(21),3,5,7,22,24-hexaene-11,14,17-trione] was 0.5 µg/mL (≈ 0.696 µM); that for `CCN1C(=O)[C@H](CCCCN)NC(=O)[C@H](CCCN)NCc2ccccc2Sc2c(C)cccc2CNC(=O)[C@@H]1Cc1c[nH]c2ccccc12` [Example 46, (12S,15S,18S)-15-(4-Amino-butyl)-18-(3-amino-propyl)-13-ethyl-12-(1H-indol-3-ylmethyl)-4-methyl-2-thia-10,13,16,19-tetraaza-tricyclo[19.4.0.0*3,8*]pentacosa-1(21),3,5,7,22,24-hexaene-11,14,17-trione] was 1 µg/mL (≈ 1.43 µM); that for `CN1C(=O)[C@H](CCCCN)NC(=O)[C@H](CCCN)NCc2ccccc2Sc2ccc(F)cc2CNC(=O)[C@@H]1Cc1c[nH]c2ccccc12` [Example 47, (12S,15S,18S)-15-(4-Amino-butyl)-18-(3-amino-propyl)-6-fluoro-12-(1H-indol-3-ylmethyl)-13-methyl-2-thia-10,13,16,19-tetraaza-tricyclo[19.4.0.0*3,8*]pentacosa-1(25),3,5,7,21,23-hexaene-11,14,17-trione] was 4 µg/mL (≈ 5.81 µM). On to `CNCCCC[C@@H]1NCc2ccccc2Sc2c(Cl)cccc2CNC(=O)[C@H](Cc2c[nH]c3ccccc23)N(C)C(=O)[C@H](CCCCN)NC1=O` [Example 48, (12S,15S,18S)-15-(4-Amino-butyl)-4-chloro-12-(1H-indol-3-ylmethyl)-13-methyl-18-(4-methylamino-butyl)-2-thia-10,13,16,19-tetraaza-tricyclo[19.4.0.0*3,8*]pentacosa-1(21),3,5,7,22,24-hexaene-11,14,17-trione], for which the MIC was 2 µg/mL (≈ 2.73 µM). Same read-out and setting: for `COc1cc(Cl)c2c(c1)CNC(=O)[C@H](Cc1c[nH]c3ccccc13)N(C)C(=O)[C@H](CCCCN)NC(=O)[C@H](CCCN)NCc1ccccc1S2` [Example 49, (12S,15S,18S)-15-(4-Amino-butyl)-18-(3-amino-propyl)-4-chloro-12-(1H-indol-3-ylmethyl)-6-methoxy-13-methyl-2-thia-10,13,16,19-tetraaza-tricyclo[19.4.0.0*3,8*]pentacosa-1(25),3,5,7,21,23-hexaene-11,14,17-trione] the value was 0.5 µg/mL (≈ 0.681 µM); for `COc1cc(C)c2c(c1)CNC(=O)[C@H](Cc1c[nH]c3ccccc13)N(C)C(=O)[C@H](CCCCN)NC(=O)[C@H](CCCN)NCc1ccccc1S2` [Example 50, (12S,15S,18S)-15-(4-Amino-butyl)-18-(3-amino-propyl)-12-(1H-indol-3-ylmethyl)-6-methoxy-4,13-dimethyl-2-thia-10,13,16,19-tetraaza-tricyclo[19.4.0.0*3,8*]pentacosa-1(25),3,5,7,21,23-hexaene-11,14,17-trione], 0.25 µg/mL (≈ 0.35 µM); for `Cc1cccc2c1Sc1ncccc1CN[C@@H](CCCN)C(=O)N[C@@H](CCCCN)C(=O)N(C)[C@@H](Cc1c[nH]c3ccccc13)C(=O)NC2` [Example 51, (11S,14S,17S)-14-(4-Amino-butyl)-11-(3-amino-propyl)-17-(1H-indol-3-ylmethyl)-16,25-dimethyl-2-thia-4,10,13,16,19-pentaaza-tricyclo[19.4.0.0*3,8*]pentacosa-1(25),3,5,7,21,23-hexaene-12,15,18-trione], 4 µg/mL (≈ 5.84 µM).

As a reminder, the MIC is the lowest concentration found to suppress growth.
